System: 282377-053-R-J1-PDC complex spheroid viability
Assay: Anticancer human tumor 282377-053-R-J1-PDC patient-derived colon adenocarcinoma cell line growth inhibition [POLQ]
Conditions: for IC50: curve of first compound; for viability, T/C: stronger effect = lower value
Procedure, shortened: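 Patient-derived tumour cells were co-cultured with HUVEC and mesenchymal stem cells as multicellular spheroids at 37 °C. They were treated with POLQ inhibitors (novobiocin, ART-558, RP6685) alone or combined with other agents. Top concentrations were at or near clinical Cmax (otherwise 10 microM; SN-38 at 1 microM), decreasing in half-log steps.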

[1] = second compound 0.0316 µM, first compound 0.0316 µM
[2] = second compound 0.0316 µM, first compound 0.1 µM
[3] = second compound 0.0316 µM, first compound 0.316 µM
[4] = second compound 0.0316 µM, first compound 1 µM
[5] = second compound 0.0316 µM, first compound 3.16 µM
[6] = second compound 0.0316 µM, first compound 10 µM
[7] = second compound 0.1 µM, first compound 0.0316 µM
[8] = second compound 0.1 µM, first compound 0.1 µM
[9] = second compound 0.1 µM, first compound 0.316 µM
[10] = second compound 0.1 µM, first compound 1 µM
[11] = second compound 0.1 µM, first compound 3.16 µM
[12] = second compound 0.1 µM, first compound 10 µM
[13] = second compound 0.316 µM, first compound 0.0316 µM
[14] = second compound 0.316 µM, first compound 0.1 µM
[15] = second compound 0.316 µM, first compound 0.316 µM
[16] = second compound 0.316 µM, first compound 1 µM
[17] = second compound 0.316 µM, first compound 3.16 µM
[18] = second compound 0.316 µM, first compound 10 µM
[19] = second compound 1 µM, first compound 0.0316 µM
[20] = second compound 1 µM, first compound 0.1 µM
[21] = second compound 1 µM, first compound 0.316 µM
[22] = second compound 1 µM, first compound 1 µM
[23] = second compound 1 µM, first compound 3.16 µM
[24] = second compound 1 µM, first compound 10 µM
[25] = second compound 3.16 µM, first compound 0.0316 µM
[26] = second compound 3.16 µM, first compound 0.1 µM
[27] = second compound 3.16 µM, first compound 0.316 µM
[28] = second compound 3.16 µM, first compound 1 µM
[29] = second compound 3.16 µM, first compound 3.16 µM
[30] = second compound 3.16 µM, first compound 10 µM
[31] = second compound 10 µM, first compound 0.0316 µM
[32] = second compound 10 µM, first compound 0.1 µM
[33] = second compound 10 µM, first compound 0.316 µM
[34] = second compound 10 µM, first compound 1 µM
[35] = second compound 10 µM, first compound 3.16 µM
[36] = second compound 10 µM, first compound 10 µM
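Also: spheroids exposed to compounds for seven days.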
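For viability, T/C in this document: 100% = DMSO vehicle control viability.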

Question: Which IC50 (second compound 0.0316 µM) does the source give for Nc1ccn(C2OC(CO)C(O)C2(F)F)c(=O)n1 (centres undefined) + COC1C(OC(N)=O)C(O)C(Oc2ccc3c(O)c(NC(=O)c4ccc(O)c(CC=C(C)C)c4)c(=O)oc3c2C)OC1(C)C here?
Answer: Its IC50 is 0.0837 µM.

Question: What about the IC50 (second compound 0.1 µM) of the same compound?
Answer: Its IC50 is 0.138 µM.

Question: What about the IC50 (second compound 0.316 µM) of the same compound?
Answer: Its IC50 is 0.123 µM.

Question: What about the IC50 (second compound 1 µM) of the same compound?
Answer: Its IC50 is 0.114 µM.

Question: And the IC50 (second compound 3.16 µM)?
Answer: The IC50 was 0.0909 µM.

Question: What about the IC50 (second compound 10 µM) of the same compound?
Answer: Its IC50 is 0.0956 µM.

Question: What about the viability, T/C [1] of the same compound?
Answer: The viability, T/C was 80.7%.

Question: What about the viability, T/C [2] of the same compound?
Answer: Its viability, T/C is 41.5%.

Question: What about the viability, T/C [3] of the same compound?
Answer: Its viability, T/C is 28.9%.

Question: What about the viability, T/C [4] of the same compound?
Answer: The viability, T/C was 27.2%.

Question: What about the viability, T/C [5] of the same compound?
Answer: The viability, T/C was 22.7%.

Question: And the viability, T/C [6]?
Answer: Its viability, T/C is 11.6%.

Question: And the viability, T/C [7]?
Answer: The viability, T/C was 79.7%.

Question: And the viability, T/C [8]?
Answer: The viability, T/C was 60.3%.

Question: And the viability, T/C [9]?
Answer: Its viability, T/C is 23%.

Question: What about the viability, T/C [10] of the same compound?
Answer: Its viability, T/C is 26%.

Question: What about the viability, T/C [11] of the same compound?
Answer: The viability, T/C was 20.7%.

Question: And the viability, T/C [12]?
Answer: The viability, T/C was 13.5%.

Question: And the viability, T/C [13]?
Answer: Its viability, T/C is 107%.

Question: What about the viability, T/C [14] of the same compound?
Answer: Its viability, T/C is 51.5%.

Question: What about the viability, T/C [15] of the same compound?
Answer: Its viability, T/C is 32.5%.

Question: And the viability, T/C [16]?
Answer: Its viability, T/C is 27.8%.

Question: And the viability, T/C [17]?
Answer: The viability, T/C was 21.1%.

Question: And the viability, T/C [18]?
Answer: The viability, T/C was 12.5%.

Question: And the viability, T/C [19]?
Answer: Its viability, T/C is 93%.

Question: And the viability, T/C [20]?
Answer: Its viability, T/C is 48%.

Question: What about the viability, T/C [21] of the same compound?
Answer: Its viability, T/C is 32%.

Question: And the viability, T/C [22]?
Answer: The viability, T/C was 33.3%.

Question: What about the viability, T/C [23] of the same compound?
Answer: Its viability, T/C is 21.8%.

Question: What about the viability, T/C [24] of the same compound?
Answer: Its viability, T/C is 10.6%.

Question: And the viability, T/C [25]?
Answer: Its viability, T/C is 76.5%.

Question: What about the viability, T/C [26] of the same compound?
Answer: The viability, T/C was 47.1%.

Question: What about the viability, T/C [27] of the same compound?
Answer: Its viability, T/C is 27.9%.

Question: What about the viability, T/C [28] of the same compound?
Answer: The viability, T/C was 27.8%.

Question: And the viability, T/C [29]?
Answer: Its viability, T/C is 21.3%.

Question: What about the viability, T/C [30] of the same compound?
Answer: Its viability, T/C is 11.1%.

Question: What about the viability, T/C [31] of the same compound?
Answer: Its viability, T/C is 90.2%.

Question: And the viability, T/C [32]?
Answer: The viability, T/C was 47.2%.

Question: And the viability, T/C [33]?
Answer: The viability, T/C was 28.1%.

Question: And the viability, T/C [34]?
Answer: The viability, T/C was 32.7%.

Question: What about the viability, T/C [35] of the same compound?
Answer: Its viability, T/C is 24%.

Question: What about the viability, T/C [36] of the same compound?
Answer: The viability, T/C was 13.8%.

Question: Which IC50 (second compound 0.0316 µM) does the source give for O=C(Nc1ccc(O)c(NS(=O)(=O)c2ccc(F)cc2)c1)c1ccc(-c2ccccc2)cc1 + COC1C(OC(N)=O)C(O)C(Oc2ccc3c(O)c(NC(=O)c4ccc(O)c(CC=C(C)C)c4)c(=O)oc3c2C)OC1(C)C here?
Answer: The IC50 was > 10 µM.

Question: What about the IC50 (second compound 0.1 µM) of the same compound?
Answer: The IC50 was > 10 µM.

Question: And the IC50 (second compound 0.316 µM)?
Answer: Its IC50 is > 10 µM.

Question: What about the IC50 (second compound 1 µM) of the same compound?
Answer: The IC50 was > 10 µM.

Question: And the IC50 (second compound 3.16 µM)?
Answer: Its IC50 is > 10 µM.

Question: What about the IC50 (second compound 10 µM) of the same compound?
Answer: Its IC50 is > 10 µM.

Question: What about the viability, T/C [1] of the same compound?
Answer: Its viability, T/C is 120%.

Question: And the viability, T/C [2]?
Answer: Its viability, T/C is 117%.

Question: What about the viability, T/C [3] of the same compound?
Answer: Its viability, T/C is 109%.

Question: And the viability, T/C [4]?
Answer: The viability, T/C was 113%.

Question: And the viability, T/C [5]?
Answer: Its viability, T/C is 133%.

Question: And the viability, T/C [6]?
Answer: The viability, T/C was 94.5%.

Question: And the viability, T/C [7]?
Answer: The viability, T/C was 122%.

Question: What about the viability, T/C [8] of the same compound?
Answer: The viability, T/C was 125%.

Question: What about the viability, T/C [9] of the same compound?
Answer: The viability, T/C was 117%.

Question: And the viability, T/C [10]?
Answer: The viability, T/C was 127%.

Question: And the viability, T/C [11]?
Answer: Its viability, T/C is 127%.

Question: What about the viability, T/C [12] of the same compound?
Answer: The viability, T/C was 97%.

Question: What about the viability, T/C [13] of the same compound?
Answer: Its viability, T/C is 115%.

Question: And the viability, T/C [14]?
Answer: Its viability, T/C is 108%.

Question: And the viability, T/C [15]?
Answer: The viability, T/C was 100%.

Question: What about the viability, T/C [16] of the same compound?
Answer: Its viability, T/C is 108%.

Question: What about the viability, T/C [17] of the same compound?
Answer: Its viability, T/C is 112%.

Question: And the viability, T/C [18]?
Answer: Its viability, T/C is 94.5%.

Question: And the viability, T/C [19]?
Answer: The viability, T/C was 116%.

Question: What about the viability, T/C [20] of the same compound?
Answer: The viability, T/C was 99.6%.

Question: And the viability, T/C [21]?
Answer: The viability, T/C was 118%.

Question: And the viability, T/C [22]?
Answer: The viability, T/C was 115%.

Question: What about the viability, T/C [23] of the same compound?
Answer: The viability, T/C was 120%.

Question: What about the viability, T/C [24] of the same compound?
Answer: The viability, T/C was 122%.

Question: And the viability, T/C [25]?
Answer: The viability, T/C was 98.2%.

Question: And the viability, T/C [26]?
Answer: The viability, T/C was 118%.

Question: And the viability, T/C [27]?
Answer: The viability, T/C was 106%.

Question: And the viability, T/C [28]?
Answer: Its viability, T/C is 114%.

Question: And the viability, T/C [29]?
Answer: The viability, T/C was 99.8%.

Question: What about the viability, T/C [30] of the same compound?
Answer: The viability, T/C was 104%.

Question: What about the viability, T/C [31] of the same compound?
Answer: The viability, T/C was 127%.

Question: And the viability, T/C [32]?
Answer: Its viability, T/C is 95.3%.

Question: And the viability, T/C [33]?
Answer: Its viability, T/C is 94.9%.

Question: And the viability, T/C [34]?
Answer: The viability, T/C was 127%.

Question: And the viability, T/C [35]?
Answer: The viability, T/C was 104%.

Question: And the viability, T/C [36]?
Answer: Its viability, T/C is 93.5%.

— PubChem BioAssay AID1963852 (Molecular Pharmacology Branch, DTP, NCI, 2024)
